We go through six compounds from patent publication US6204067A, “Methods of identifying modulators of the estrogen receptor” (Board of Trustees Operating Michigan State University, priority 1999, dated 2001).

The target in one experiment is T1, estrogen receptor (Homo sapiens, UniProt P03372).
T1 sequence (P03372 1-595): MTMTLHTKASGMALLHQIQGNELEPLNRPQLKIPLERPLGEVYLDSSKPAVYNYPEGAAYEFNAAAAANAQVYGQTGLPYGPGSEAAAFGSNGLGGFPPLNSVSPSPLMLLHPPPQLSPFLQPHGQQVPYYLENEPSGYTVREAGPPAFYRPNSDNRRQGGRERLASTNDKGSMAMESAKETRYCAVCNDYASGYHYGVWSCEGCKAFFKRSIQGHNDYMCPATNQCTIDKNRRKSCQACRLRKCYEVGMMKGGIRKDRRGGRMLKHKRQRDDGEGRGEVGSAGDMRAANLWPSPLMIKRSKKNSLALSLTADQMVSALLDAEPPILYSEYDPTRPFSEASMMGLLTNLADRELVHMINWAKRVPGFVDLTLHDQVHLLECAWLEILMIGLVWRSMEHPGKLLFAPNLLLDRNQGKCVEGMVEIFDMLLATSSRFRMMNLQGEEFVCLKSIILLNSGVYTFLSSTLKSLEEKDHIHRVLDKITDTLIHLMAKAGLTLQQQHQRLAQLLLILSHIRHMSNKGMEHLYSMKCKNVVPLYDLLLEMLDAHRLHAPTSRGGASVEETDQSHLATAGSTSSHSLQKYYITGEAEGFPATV
To be noted: higher affinity; cited from earlier work.

A further experiment has as its system yeast vacuoles. The experiment in a line: Acidification of yeast vacuoles (acridine orange). Format: biochemical, S. cerevisiae. The protocol:
Vacuoles from S. cerevisiae were prepared from the protease deficient strain BJ2407 (Yeast Genetic Stock Center, University of California, Berkeley) by sequential floatation through 12% and 8% Ficoll 400 cushion as described previously [Roberts et al., Methods Enzymol, 194:644-661 (1991)] with the single modification that 1× protease inhibitor mix and 1 mM DTT was included in each step. […] Acidification was measured using AO as described above. For acidification in chloride-free solution, gluconate or glutamate was used in vesicle buffer instead of chloride.
ATP (1.5 mM) was added at 50 sec to initiate acidification and at 400 sec nigericin (1 μM) was added to dissipate pH gradients.

The procedure of experiment [1]:
The lumenal pH (pHL) of liposomes was assayed with pyranine, a fluorescent dye with a pKa~7.3 and a λex =405 nm in its acid form (-3 charge) and a λex =455 nm in its basic form (-4 charge). To prepare pyranine loaded liposomes, lipids (2 mg POPC, 1 mg cholesterol) supplied in chloroform suspension were dried in a round bottom flask under argon for 2 hours. The lipids were then resuspended in acidic or alkaline liposome buffer (300 mM KCl, 20 mM MES, 20 mM MOPS, 20 mM Tricine titrated with KOH to either pH 6.2 or pH 8.1) containing 0.5 mM pyranine. The suspension was incubated at room temperature overnight, then freeze-thawed 6×. Unilamellar liposomies were prepared by extrusion 3× through 2 stacked 100 nm Nucleopore (Corning/Costar Scientific, Acton, Mass.) polycarbonate filters in an Avestin (Vancouver, BC) extruder at 600 PSI.
The pyranine fluorescence was calibrated as a function of pH by diluting the liposomes with pH 6.2 into a weakly buffered solution of identical pH (300 mM KCl, 1 mM MES, 1 mM MOPS, 1 mM Tricine, pH 6.2), 1 μM nigericin to allow rapid equilibration with external pH and 5 mM DPX to quench external pyranine. The ratio of the fluorescence emission at λem =510 nm was monitored with dual excitation wavelengths of λex =405 nm and λex =455 nm. Sequential aliquots of 0.1 mM glycylglycine, pH 8.4 were added to increase pH (See FIG. 5). The fluorescence was measured after each addition and the pH was measured using a pH meter. […] The cahiration curve for the liposomes of lumenal pH 8.1 was generated identically except sequential aliquots of 0.1 mM K-MES pH 5.0 were added for titration and the curve was generated between pH 8.1 and pH 6.4.
To measure the rate of pH dissipation of liposomes with lumenal pH=6.2, the liposomes were diluted in weakly buffered solution of identical pH as described above, but with no nigericin. […] The external pH was shifted to pH 7.3 by addition of 5 mM glycylglycine pH 8.4 and the fluorescence ratio monitored. After 10 minutes, 1 μM nigericin was added to dissipate the remaining pH gradient. The pHL was calculated using the equation pH=x*log(λex =405 nm/[…])+c, were x and c are constants from the least square fit of the titration curve. To measure the rate of pH dissipation of liposomes with pHL =8.1, the identical procedure was followed except 5 mM K-MES pH 5.0 was added to shift the external pH to 6.9.
Liposomes were loaded with pyranine, a hydrophilic, non-permeable fluorescent pH indicator to assay proton permeability. […] Two steps were taken to ensure that only pHL was measured and to permit the discrimination between dissipation of pH gradient and the lysis or dye leakage from liposomes.

In experiment [2] the test system is microsomes isolated from MCF-7/ADR cells. Put plainly: In vitro acidification of MCF-7/ADR microsomes (acridine orange quenching). The note with it: for rate of dissipation of pre-existing pH gradient: added 10 minutes after ATP, tamoxifen 8 μM, bafilomycin A1 100 nM. Format: biochemical. Here is the method:
Cells were grown in Minimal Essential. Medium supplemented with 10% Fetal Bovine Serum to confluence in 10 level Cell Factories (Nunc, Naperville, Ill.), trypsinized, washed 3× with cold PBS and lysed with a Dounce homogenizer (Pestle A) in 0.25 M sucrose, 20 mM HEPES (pH 7.4), 1 mM DTT, 1 mM EDTA, and 1× protease inhibitor mix (1 μg/ml leupeptin, 1 μ/ml pepstatin A, 1 μg/ml aprotinin, and 16 μM PMSF mixed to 100× before use). The homogenate was centrifuged twice for 10 minutes at 3000×g to remove unbroken cells and nuclei. The supernatant was layered over 20 ml of 0.5 M sucrose (20 mM HEPES (pH 7.4), 1 mM DTT, 1 mM EDTA, 1× protease inhibitor mix) and 1 ml of 2 M sucrose and centrifuged for 1 hour at 100,000 g (Beckman Ti60 Rotor). Microsomes are collected at the 0.5M and 2M interface.
To monitor acidification of the total microsomal fraction, the quenching of AO fluorescence was monitored essentially as described previously [Barasch et al., Nature 352:70-73 (1991)]. Acidic vesicles accumulate AO to high concentrations resulting in the self quenching of the dye and a decrease of the overall fluorescence. Fluorescence was measured on an SLM Aminco-Bowman series 2 luminescence spectrometer with λex =488 nm and λem =530 nm Microsomes (80 μg protein) were suspended in 2.5 ml vesicle buffer (125 mM KCl, 5 mM MgCl2, 20 mM HEPES (pH 7.4), 1 mM DTT, 1 mM EDTA, 2 mM NaN3), with 6 μM AO (5 mM stock in H2 O) in a cuvet. […] After equilibration for 30 minutes at 25° C. 1 mM Tris-ATP was added to begin acidification (100 mM stock, titrated to pH 7.4 with 1 M Tris-base before use). Twenty minutes later, 2.5 μM of nigericin (10 mM stock in EtOH) was added to dissipate any ΔpH formation.
Acridine orange (AO) was used as a probe for lumenal acidification. As vesicles acidify, they accumulate AO to self-quenching concentrations, and deplete the extra-vesicular free AO, resulting in a decrease in total fluorescence. Acidification was initiated by the addition of ATP to a purified microsomal fraction in the absence of cytosol (FIG. 1A, at t=300 sec). […] Nigericin, a K^+ /H^+ exchanger that rapidly dissipates pH gradients, was added at the end of each reaction (t=1500 seconds).

Experiment [3] in a line: Liposome chloride concentration (lucigenin). To be noted: after addition of 50 mM KCl; tamoxifen 2, 4, 8 μM, valinomycin 1 μM.

Regarding `CC/C(=C(/c1ccc(OCCN(C)C)cc1)c1cccc(O)c1)c1ccccc1` [Droloxifene, 3-hydroxytamoxifen], the “binding affinity to the estrogen receptor relative to tamoxifen” value at estrogen receptor is on record as 10-60 fold.

`Cl.N` [ammonium chloride]: in the experiment on yeast vacuoles (added at 250 sec, tamoxifen 2 μM, ammonium 1 mM), the “effect of addition to pre-acidified vacuoles” value is “step alkalinization”. In addition, the “concentration relative to tamoxifen for similar inhibition” value in the experiment with yeast vacuoles (ammonium chloride 1 mM) came to 1000 fold. Moreover, the “inhibition of vacuole acidification” value in the experiment with yeast vacuoles (pre-equilibrated, tamoxifen 2 μM or 8 μM, ammonium chloride 1 mM) is reported as “slightly inhibited”. Besides, in experiment [1] (pHL 6.2 = external pH, tamoxifen 2 μM, 8 μM, NH4Cl 5 mM), the “effect of addition on pHL without pre-existing pH gradient” value is “alkalinization of the lumen”.

Regarding `CO/C1=C\C(C)=C\[C@@H](C)[C@@H](O)[C@@H](C)C/C(C)=C/C=C/[C@H](OC)[C@@H]([C@@H](C)[C@@H](O)[C@H](C)[C@@]2(O)C[C@@H](O)[C@H](C)[C@@H](C(C)C)O2)OC1=O` [bafilomycin A1, Bafilomycin A1], in experiment [2] (10 nM (one tenth of 100 nM), pre-treatment, FIG. 1A), the acidification blocked turned out to be 95%. For the same compound, the “rate of dissipation of pre-existing pH gradient” value in experiment [2] was “much slower rate”.

For `CC[C@@]1([C@@H]2O[C@@H]([C@H]3O[C@@](O)(CO)[C@H](C)C[C@@H]3C)C[C@@H]2C)CC[C@H]([C@]2(C)CC[C@]3(C[C@H](O)[C@@H](C)[C@@H]([C@@H](C)[C@@H](OC)[C@H](C)C(=O)O)O3)O2)O1` [monensin], the “rate of dissipation of pre-existing pH gradient” value in experiment [2] is recorded as “significantly faster than tamoxifen”.

Turning to `CO[C@@H]1C[C@@H](C[C@H]2CC[C@H](C)[C@H]([C@@H](C)C(=O)O)O2)O[C@]2(O[C@](C)([C@H]3CC[C@@](C)([C@@H]4O[C@@H]([C@H]5O[C@@](O)(CO)[C@H](C)C[C@@H]5C)C[C@@H]4C)O3)C[C@H]2C)[C@@H]1C` [nigericin], in experiment [2], the “rate of dissipation of pre-existing pH gradient” value is on record as “significantly faster than tamoxifen”.

In the case of `CC(C)[C@@H]1NC(=O)[C@H](C)OC(=O)[C@@H](C(C)C)NC(=O)[C@@H](C(C)C)OC(=O)[C@H](C(C)C)NC(=O)[C@H](C)OC(=O)[C@@H](C(C)C)NC(=O)[C@@H](C(C)C)OC(=O)[C@H](C(C)C)NC(=O)[C@H](C)OC(=O)[C@@H](C(C)C)NC(=O)[C@@H](C(C)C)OC1=O` [valinomycin], in experiment [3], the “rate of chloride influx into liposomes” value is given as “increased the rate of chloride equilibration”. The “effect on pHL after shift of external pH” value in experiment [1] (pHL 6.2, external pH shifted to 7.3, tamoxifen 0.5 or 2 μM, NH4Cl 1 mM, FCCP 1 μM, valinomycin 1 μM) is reported as “faster dissipation of the pH gradient than FCCP”. Moreover, the “rate of pH gradient dissipation, alkaline lumen” value in experiment [1] (pHL 8.1, external pH shifted to 6.9, tamoxifen 0.5-8 μM, NH4Cl 5 mM, FCCP 1 μM, valinomycin 1 μM) is reported as “greater dissipation of pH gradient than FCCP”.
